Laboratory results taken from patent US8927689B2, “Peptide nanostructures and methods of generating and using the same” (Ramot at Tel-Aviv University Ltd., priority 2002, dated 2015).
Non-standard residues stand in square brackets, D forms with d. Residues, ends and D or L forms follow the SMILES beside them.

How the values were obtained:
[1] = target: Proteinase K (Parengyodontium album, UniProt P06873); assay: Incubation of peptide nanotubes with Proteinase K, electron microscopy examination; type: in vitro ADME; conditions: one hour of incubation with 0.02 mg/ml of Proteinase K; compared with before incubation
Excerpt: For other applications, such as the assembly of nanotube based biosensors or hollow tubing of nanofluidic circuits, enzymatically stable nanotubes are desired. To assemble such stable tubes, proteolytically stable building blocks based on the D-amino-acids analogue of the peptide, NH2-D-Phe-D-Phe-COOH (SEQ ID NO: 8) were used. This peptide formed nanotubes with the same structural features as the corresponding L-amino-acids peptide (FIG. 12a).

[2] = Dissolving lyophilized peptide in 1,1,1,3,3,3-hexafluoro-2-propanol; type: physicochemical; conditions: 100 mg/ml
Protocol: Peptides (NH2-Phe-Phe-COOH, SEQ ID NO: 1) were purchased from Bachem (Budendorf, Switzerland). Freshly prepared stock solution was prepared by dissolving lyophilized form of the peptide in 1,1,1,3,3,3,-Hexafluoro-2-propanol at a concentration of 100 mg/ml. To avoid any pre-aggregation, fresh stock solution were prepared for each experiment.
Very concentrated peptide solution (i.e., 100 mg/ml) were prepared by dissolving the lyophilized peptide in 1,1,1,3,3,3 hexafluoro-2-propanol. […] Assembly into supramolecular structures was determined within minutes at the μM range, using dynamic light scattering analysis (data not shown).

Proteinase K, sequence (P06873 106-384): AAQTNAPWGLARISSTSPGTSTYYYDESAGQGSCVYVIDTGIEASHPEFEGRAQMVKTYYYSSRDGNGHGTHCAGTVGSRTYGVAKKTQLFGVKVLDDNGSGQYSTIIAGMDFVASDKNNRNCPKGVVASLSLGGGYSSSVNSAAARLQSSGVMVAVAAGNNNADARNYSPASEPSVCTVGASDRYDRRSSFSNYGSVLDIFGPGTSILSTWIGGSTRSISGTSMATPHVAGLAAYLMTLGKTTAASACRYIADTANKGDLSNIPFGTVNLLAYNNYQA

SMILES | tubular structures observed by electron microscopy after proteolysis [1] | solubility in the organic solvent [2]
N[C@H](Cc1ccccc1)C(=O)N[C@H](Cc1ccccc1)C(=O)O [D-Phe-D-Phe, NH2-D-Phe-D-Phe-COOH] (H-[dF]-[dF]-OH) | no significant variation | –
N[C@@H](Cc1ccccc1)C(=O)N[C@@H](Cc1ccccc1)C(=O)O [NH2-Phe-Phe-COOH] (H-Phe-Phe-OH) | no tubular structures were observed | highly soluble
